From the OligoGym collection
HELM strings list units from the 5' end as sugar, base in round brackets, then linkage (d deoxyribose, r ribose, m 2'-O-methyl, p phosphodiester). Strings are as the collection lists them; they lack the last nucleoside at the 3' end of the tested compound. [moe] = 2'-O-(2-methoxyethyl) (MOE); [sp] = phosphorothioate linkage; [m5C] = 5-methylcytosine

Target: FUS
Test: mouse, dose not given
Details: ASO

Going from “RNA1{[moe](G)[sp].[moe](G)p.[moe](T)p.[moe]([m5C])p.[moe](A)p.d([m5C])[sp].d(T)[sp].d(T)[sp].d(T)[sp].d(T)[sp].d(A)[sp].d(A)[sp].d(T)[sp].d(G)[sp].d(G)[sp].[moe](G)p.[moe](A)p.[moe](A)[sp].[moe]([m5C])}$$$$ (last 3' nucleoside missing)” to “RNA1{[moe](G)[sp].[moe]([m5C])p.[moe]([m5C])p.[moe](A)p.[moe]([m5C])p.d(A)[sp].d(G)[sp].d(A)[sp].d([m5C])[sp].d(T)[sp].d([m5C])[sp].d(A)[sp].d(A)[sp].d(T)[sp].d(T)[sp].[moe](G)p.[moe](T)p.[moe](A)[sp].[moe](A)}$$$$ (last 3' nucleoside missing)”, the 3 h FOB score falls from 4.75 score 0-7 to 1 score 0-7.

Compared with “RNA1{[moe](G)[sp].[moe](G)p.[moe]([m5C])p.[moe](A)p.[moe](T)p.d(T)[sp].d([m5C])[sp].d(T)[sp].d(A)[sp].d([m5C])[sp].d([m5C])[sp].d([m5C])[sp].d(T)[sp].d(A)[sp].d([m5C])[sp].[moe]([m5C])p.[moe]([m5C])p.[moe]([m5C])[sp].[moe](T)}$$$$ (last 3' nucleoside missing)”, “RNA1{[moe](G)[sp].[moe](A)p.[moe]([m5C])p.[moe]([m5C])p.[moe]([m5C])p.d([m5C])[sp].d(T)[sp].d([m5C])[sp].d(T)[sp].d(T)[sp].d(A)[sp].d(T)[sp].d(T)[sp].d(A)[sp].d(A)[sp].[moe]([m5C])p.[moe]([m5C])p.[moe](T)[sp].[moe](G)}$$$$ (last 3' nucleoside missing)” is higher in 3 h FOB score: 1 score 0-7 for the first, 4 score 0-7 for the second.

Compared with “RNA1{[moe]([m5C])[sp].[moe]([m5C])[sp].[moe](T)[sp].[moe](G)[sp].[moe](G)[sp].d(T)[sp].d(T)[sp].d(A)[sp].d(T)[sp].d(T)[sp].d(T)[sp].d([m5C])[sp].d([m5C])[sp].d([m5C])[sp].d(A)[sp].[moe](T)[sp].[moe](G)[sp].[moe](A)[sp].[moe](G)}$$$$ (last 3' nucleoside missing)”, “RNA1{[moe](A)[sp].[moe](G)p.[moe](T)p.[moe](T)p.[moe](A)p.d([m5C])[sp].d(A)[sp].d(A)[sp].d(T)[sp].d(T)[sp].d(A)[sp].d([m5C])[sp].d(A)[sp].d(T)[sp].d(A)[sp].[moe](G)p.[moe](T)p.[moe]([m5C])[sp].[moe]([m5C])}$$$$ (last 3' nucleoside missing)” is lower in 3 h FOB score: 6 score 0-7 for the first, 4 score 0-7 for the second.

Compared with “RNA1{[moe](G)[sp].[moe](G)p.[moe](T)p.[moe](T)p.[moe](G)p.d(A)[sp].d([m5C])[sp].d(A)[sp].d(A)[sp].d([m5C])[sp].d([m5C])[sp].d(A)[sp].d(A)[sp].d(G)[sp].d(T)[sp].[moe](A)p.[moe](G)p.[moe](T)[sp].[moe](T)}$$$$ (last 3' nucleoside missing)”, “RNA1{[moe](G)[sp].[moe](T)p.[moe](T)p.[moe](A)p.[moe]([m5C])p.d(A)[sp].d(A)[sp].d(T)[sp].d(T)[sp].d(A)[sp].d([m5C])[sp].d(A)[sp].d(T)[sp].d(A)[sp].d(G)[sp].[moe](T)p.[moe]([m5C])p.[moe]([m5C])[sp].[moe](G)}$$$$ (last 3' nucleoside missing)” is lower in 3 h FOB score: 5 score 0-7 for the first, 4.5 score 0-7 for the second.

First: RNA1{[moe](T)[sp].[moe]([m5C])p.[moe]([m5C])p.[moe](A)p.[moe]([m5C])p.d(G)[sp].d(A)[sp].d(A)[sp].d(T)[sp].d(T)[sp].d([m5C])[sp].d(A)[sp].d(G)[sp].d(T)[sp].d(T)[sp].[moe](T)p.[moe](G)p.[moe](T)[sp].[moe](G)}$$$$ (last 3' nucleoside missing)
Second: RNA1{[moe](G)[sp].[moe]([m5C])p.[moe](A)p.[moe](A)p.[moe](T)p.d(G)[sp].d(T)[sp].d([m5C])[sp].d(A)[sp].d([m5C])[sp].d([m5C])[sp].d(T)[sp].d(T)[sp].d(T)[sp].d([m5C])[sp].[moe](A)p.[moe](T)p.[moe](A)[sp].[moe]([m5C])}$$$$ (last 3' nucleoside missing)
The 3 h FOB score of the first is higher: 4 score 0-7 for the first, 0 score 0-7 for the second.

Going from “RNA1{[moe](G)[sp].[moe](A)p.[moe](G)p.[moe]([m5C])p.[moe](T)p.d(A)[sp].d(G)[sp].d(T)[sp].d(T)[sp].d(T)[sp].d([m5C])[sp].d(T)[sp].d(A)[sp].d(T)[sp].d(T)[sp].[moe](T)p.[moe](G)p.[moe]([m5C])[sp].[moe]([m5C])}$$$$ (last 3' nucleoside missing)” to “RNA1{[moe](T)[sp].[moe](T)p.[moe](A)p.[moe]([m5C])p.[moe](A)p.d(A)[sp].d(T)[sp].d(T)[sp].d(A)[sp].d([m5C])[sp].d(A)[sp].d(T)[sp].d(A)[sp].d(G)[sp].d(T)[sp].[moe]([m5C])p.[moe]([m5C])p.[moe](G)[sp].[moe](A)}$$$$ (last 3' nucleoside missing)”, the 3 h FOB score rises from 0 score 0-7 to 2 score 0-7.

Compared with “RNA1{[moe](G)[sp].[moe](T)p.[moe](A)p.[moe](T)p.[moe](A)p.d([m5C])[sp].d([m5C])[sp].d(A)[sp].d(A)[sp].d([m5C])[sp].d(T)[sp].d(T)[sp].d([m5C])[sp].d(A)[sp].d([m5C])[sp].[moe]([m5C])p.[moe](A)p.[moe](T)[sp].[moe]([m5C])}$$$$ (last 3' nucleoside missing)”, “RNA1{[moe](G)[sp].[moe](T)p.[moe]([m5C])p.[moe](A)p.[moe](G)p.d(G)[sp].d(T)[sp].d(T)[sp].d(A)[sp].d(A)[sp].d([m5C])[sp].d([m5C])[sp].d(A)[sp].d(T)[sp].d(T)[sp].[moe](A)p.[moe]([m5C])p.[moe]([m5C])[sp].[moe](A)}$$$$ (last 3' nucleoside missing)” is higher in 3 h FOB score: 1 score 0-7 for the first, 2.5 score 0-7 for the second.

First: RNA1{[moe](G)[sp].[moe](G)p.[moe](T)p.[moe](T)p.[moe](A)p.d([m5C])[sp].d(A)[sp].d(A)[sp].d(A)[sp].d(A)[sp].d(T)[sp].d(A)[sp].d(A)[sp].d([m5C])[sp].d(G)[sp].[moe](A)p.[moe](G)p.[moe](G)[sp].[moe](G)}$$$$ (last 3' nucleoside missing)
Second: RNA1{[moe](A)[sp].[moe]([m5C])p.[moe]([m5C])p.[moe](A)p.[moe](T)p.d([m5C])[sp].d([m5C])[sp].d(T)[sp].d(T)[sp].d(A)[sp].d(A)[sp].d(A)[sp].d(A)[sp].d([m5C])[sp].d([m5C])[sp].[moe](G)p.[moe](T)p.[moe](G)[sp].[moe](T)}$$$$ (last 3' nucleoside missing)
The 3 h FOB score of the first is higher: 3 score 0-7 for the first, 1 score 0-7 for the second.

First: RNA1{[moe]([m5C])[sp].[moe]([m5C])p.[moe](G)p.[moe](T)p.[moe](G)p.d(T)[sp].d(T)[sp].d(G)[sp].d(T)[sp].d(T)[sp].d(T)[sp].d([m5C])[sp].d([m5C])[sp].d([m5C])[sp].d([m5C])[sp].[moe](G)p.[moe](A)p.[moe](A)[sp].[moe](A)}$$$$ (last 3' nucleoside missing)
Second: RNA1{[moe](G)[sp].[moe](T)p.[moe](T)p.[moe](T)p.[moe](A)p.d(T)[sp].d([m5C])[sp].d(T)[sp].d(G)[sp].d(A)[sp].d(A)[sp].d(T)[sp].d(T)[sp].d([m5C])[sp].d(G)[sp].[moe]([m5C])p.[moe]([m5C])p.[moe](A)[sp].[moe](T)}$$$$ (last 3' nucleoside missing)
The 3 h FOB score of the first is lower: 1 score 0-7 for the first, 5.25 score 0-7 for the second.

First: RNA1{[moe](T)[sp].[moe](G)p.[moe](T)p.[moe](T)p.[moe](T)p.d(A)[sp].d(T)[sp].d([m5C])[sp].d(T)[sp].d(G)[sp].d(A)[sp].d(A)[sp].d(T)[sp].d(T)[sp].d([m5C])[sp].[moe](G)p.[moe]([m5C])p.[moe]([m5C])[sp].[moe](A)}$$$$ (last 3' nucleoside missing)
Second: RNA1{[moe](A)[sp].[moe](T)p.[moe]([m5C])p.[moe](A)p.[moe](T)p.d([m5C])[sp].d(G)[sp].d(G)[sp].d(T)[sp].d(T)[sp].d(T)[sp].d([m5C])[sp].d([m5C])[sp].d([m5C])[sp].d(T)[sp].[moe](T)p.[moe](G)p.[moe]([m5C])[sp].[moe](A)}$$$$ (last 3' nucleoside missing)
The 3 h FOB score of the first is lower: 3 score 0-7 for the first, 5.5 score 0-7 for the second.

Going from “RNA1{[moe](A)[sp].[moe](G)p.[moe](T)p.[moe]([m5C])p.[moe](A)p.d(G)[sp].d(G)[sp].d(T)[sp].d(T)[sp].d(A)[sp].d(A)[sp].d([m5C])[sp].d([m5C])[sp].d(A)[sp].d(T)[sp].[moe](T)p.[moe](A)p.[moe]([m5C])[sp].[moe]([m5C])}$$$$ (last 3' nucleoside missing)” to “RNA1{[moe](A)[sp].[moe](G)p.[moe](G)p.[moe](T)p.[moe](T)p.d(A)[sp].d([m5C])[sp].d(A)[sp].d(A)[sp].d(A)[sp].d(A)[sp].d(T)[sp].d(A)[sp].d(A)[sp].d([m5C])[sp].[moe](G)p.[moe](A)p.[moe](G)[sp].[moe](G)}$$$$ (last 3' nucleoside missing)”, the 3 h FOB score rises from 1 score 0-7 to 5.75 score 0-7.

“RNA1{[moe](G)[sp].[moe](T)p.[moe](A)p.[moe](G)p.[moe](G)p.d(G)[sp].d(T)[sp].d([m5C])[sp].d([m5C])[sp].d(T)[sp].d(T)[sp].d([m5C])[sp].d(A)[sp].d(A)[sp].d(A)[sp].[moe](T)p.[moe]([m5C])p.[moe](T)[sp].[moe](T)}$$$$ (last 3' nucleoside missing)” and “RNA1{[moe](A)[sp].[moe](G)p.[moe](G)p.[moe]([m5C])p.[moe](A)p.d(A)[sp].d([m5C])[sp].d(T)[sp].d(T)[sp].d([m5C])[sp].d([m5C])[sp].d([m5C])[sp].d([m5C])[sp].d(T)[sp].d(T)[sp].[moe](A)p.[moe](A)p.[moe](A)[sp].[moe](G)}$$$$ (last 3' nucleoside missing)” are the same in 3 h FOB score: 1 score 0-7 for the first, 1 score 0-7 for the second.

Going from “RNA1{[moe](T)[sp].[moe]([m5C])p.[moe](A)p.[moe](T)p.[moe]([m5C])p.d(G)[sp].d(G)[sp].d(T)[sp].d(T)[sp].d(T)[sp].d([m5C])[sp].d([m5C])[sp].d([m5C])[sp].d(T)[sp].d(T)[sp].[moe](G)p.[moe]([m5C])p.[moe](A)[sp].[moe](G)}$$$$ (last 3' nucleoside missing)” to “RNA1{[moe](G)[sp].[moe]([m5C])p.[moe](A)p.[moe](A)p.[moe](A)p.d(G)[sp].d(A)[sp].d(T)[sp].d(A)[sp].d(G)[sp].d(T)[sp].d(T)[sp].d(A)[sp].d([m5C])[sp].d([m5C])[sp].[moe]([m5C])p.[moe](T)p.[moe]([m5C])[sp].[moe]([m5C])}$$$$ (last 3' nucleoside missing)”, the 3 h FOB score falls from 2.25 score 0-7 to 1 score 0-7.
